Data as given in patent US8026235B1, “Pyridyl benzoxazine derivatives, pharmaceutical composition comprising the same, and use thereof” (Daewoong Pharmaceutical Co., Ltd., priority 2010, dated 2011).
Like-named read-outs stand apart in the source and are kept apart here.

Columns and labels:
[1] = test system: PBQ-induced writhing in ICR male mice; assay: Phenyl-p-quinone (PBQ)-induced writhing experiment using mice (effect on pain); assay type: in vivo; details: oral, PBQ (0.02%) i.p. after 1 hour; for I.A. (inhibitory activity), % inhibition rate class: writhing counted for 10 min
Experimental: In order to evaluate the effect on pain of the compounds prepared in the Examples 1 to 9, behaviors such as twisting or writhing of body resulted from pain were verified by the phenyl-p-quinone (PBQ)-induced writhing experiment using mice.
5 week-old ICR male mice were used as experimental animals and PBQ (0.02%), as a chemical stimulator. The suspensions of 20 mg of the compounds of the present invention and an excipient such as Na-CMC (sodium carboxymethyl cellulose) in 10 mL of saline were used as test compounds. The test compounds were orally administered to the mice and after 1 hour, PBQ was intraperitoneally administrated in an amount of 10 mL per kg of body weight. The writhing number of each mouse was measured for 10 min starting from 5 min after the administration, and the analgesic effect was verified by counting the reduced number compared to the control group administered with only excipient and calculating the % inhibitory rate according to the following Formula 2. Also, equivalent amounts of SB-705498 were administered as a reference compound for the comparison of the effect on pain between SB-705498 and the compounds of the present invention. % inhibition rate=(writhing # of control group−writhing # of test group)/writhing # of control group×100 [Formula 2]
The inhibitory activity was evaluated from the obtained % inhibition rate, according to the following parameters.

[2] = test system: SD rats (Sprague-Dawley rats); assay: Assay for body temperature change (rectal temperature) in SD rats; assay type: in vivo; details: single oral administration, rectal temperature up to 8 hr
Experimental: With the knowledge that some TRPV1 antagonists show the side effect of increasing the body temperature (Gavva et al., 2008, Pain, 136, 202-210), changes in body temperature associated with the compounds prepared in the Examples of the present invention were assessed.
7-week-old SD rats (Sprague-Dawley rats) were employed for this evaluation. Each of the compounds of the Examples was orally administered once at a dose of 10 ml/kg by compulsion. Before administration, the compounds were suspended, together with the excipient Na-CMC (sodium carboxymethyl cellulose), in saline 10 mL. Rectal temperatures of the rats were measured 1 hr and immediately (0 hr) prior to administration, and at the 30 min, 1 hr, 2 hr, 4 hr, 6 hr and 8 hr marks after administration using a thermometer (Shibaura Electronic Corporation, TD-300). The data were expressed as mean values ±S.E.M. Statistical data was analyzed by one way ANOVA, and statistical significance was analyzed in comparison with the excipient-treated control using Dunnett's t-test. Meanwhile, N-(4-(6-(4-(trifluoromethyl)phenyl)[…])benzo[d]thiazol-2-yl)acetamide (hereinafter referred to as “AMG-517”) was used at a dose of 3 mg/kg, as a positive control.

[3] = target: T1, human vanilloid-1 (TRPV1) (Homo sapiens, UniProt Q8NER1); assay: Inhibitory effect on capsaicin-stimulated calcium influx via a vanilloid receptor in hVR-1-HEK293 cells (Fluo-3/AM); assay type: cell-based; details: 1 μM capsaicin
T1 construct: expressed in transfected cells; host or cells: HEK293 Tet-on (hVR-1-HEK293), expression induced with doxycycline
T1 sequence (Q8NER1 whole entry): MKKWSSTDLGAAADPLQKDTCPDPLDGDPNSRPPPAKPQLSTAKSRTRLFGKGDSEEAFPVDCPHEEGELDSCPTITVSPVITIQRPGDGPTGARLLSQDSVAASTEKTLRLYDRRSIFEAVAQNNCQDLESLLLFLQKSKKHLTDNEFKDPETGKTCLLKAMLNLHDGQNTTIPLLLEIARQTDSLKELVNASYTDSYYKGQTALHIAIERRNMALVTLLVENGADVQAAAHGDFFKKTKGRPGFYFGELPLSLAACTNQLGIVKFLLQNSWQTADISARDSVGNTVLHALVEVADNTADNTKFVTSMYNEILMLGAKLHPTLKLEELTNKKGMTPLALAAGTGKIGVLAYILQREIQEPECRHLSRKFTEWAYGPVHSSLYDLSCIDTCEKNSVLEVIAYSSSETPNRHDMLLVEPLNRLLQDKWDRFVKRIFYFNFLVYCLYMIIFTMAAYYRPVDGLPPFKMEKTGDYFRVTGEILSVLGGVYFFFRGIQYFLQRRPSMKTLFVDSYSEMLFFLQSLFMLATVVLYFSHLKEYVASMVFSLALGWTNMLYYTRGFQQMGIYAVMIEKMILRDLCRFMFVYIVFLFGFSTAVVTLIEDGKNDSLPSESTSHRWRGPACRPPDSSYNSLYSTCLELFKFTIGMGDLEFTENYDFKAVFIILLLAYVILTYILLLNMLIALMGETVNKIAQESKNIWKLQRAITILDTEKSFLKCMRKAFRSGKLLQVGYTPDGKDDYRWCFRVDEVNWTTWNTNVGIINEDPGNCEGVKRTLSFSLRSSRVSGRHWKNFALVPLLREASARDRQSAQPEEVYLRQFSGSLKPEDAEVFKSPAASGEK
Source text: In order to confirm the antagonistic activities of the inventive compounds, inhibitory effects of the compounds on calcium influx were examined as follows.
hVR-1-HEK293 cell line is a human embryonic kidney (HEK) cell 293 Tet-on strain transformed with a human vanilloid-1 gene (pTRE2hyg-hVR-1 7.8 kb). The cell line can modulate the expression of TRPV1, depending on whether doxycycline, a derivative of tetracycline, is present or not.
In order to elucidate the inhibitory effect on calcium influx, the expression of TRPV1 was induced by culturing hVR-1-HEK293 cell line in a medium containing doxycycline for 2 days.
Specifically, hVR-1-HEK293 cells were cultured in a T75 flask to about 80% confluency, separated from the flask by treating with trypsin solution, and then collected by centrifugation. The cells were suspended in a medium containing 1 μg/mL of doxycycline, and the resulting suspension was diluted to a concentration of 2˜4×10^5 cells/mL 100 μL of the cell suspension was placed in each well of a 96-well black plate. The cells were cultured in 5% CO2 incubator at 37° C. for 2 days, and used for the following procedure.
The compounds, prepared in the Examples 1 to 9 of the present invention, were dissolved in dimethyl sulfoxide (DMSO) to obtain compound samples.
The cells prepared in 1) above were cultured at 37° C. for 90 min in a solution containing Fluo-3/AM, a fluorescent dye, as a calcium indicator so that the fluorescent dye was permeated into the cells. Then the cells were washed three times with D-PBS (Dulbecco's phosphate buffered saline) containing 10 mM HEPES (4-(2-hydroxyethyl)-1-piperazine ethanesulfonic acid) to remove the residual fluorescent dye. 193 μL of D-PBS was added to each well, followed by addition of various concentrations (0.015˜2000 nM) of the compounds. In order to stimulate calcium influx through a vanilloid receptor, the cells were treated with 1 μM of capsaicin. The inhibitory effect of various concentrations (0.015˜2000 nM) of compounds on intracellular calcium influx was measured by using a fluorimeter. Equivalent amounts of (R)-1-(2-bromophenyl)-3-(1-(5-(trifluoromethyl)pyridin-2-yl)pyrrolidin-3-yl)urea (also, referred to SB-705498) was used as a control group. The obtained data were input to the Hill equation represented by the following formula I and the values were analyzed: Intracellular calcium influx=(florescent intensity of experimental group−florescent intensity of background)/(florescent intensity of positive control−florescent intensity of background)×100 [Formula 1]
The inhibitory activities were evaluated from the obtained intracellular calcium influx values according to the following criteria.

[4] = compounds 0.015˜2000 nM, read-out: I.A. (inhibitory activity), IC50 class

Compound | Change in Body Temp. [2] | IC50 [3, 4] [µM] | IC50 ([3]; read-out: IC50 on calcium influx) [µM] | I.A. (inhibitory activity), % inhibition rate class [1] | % inhibition rate of writhing [1] [%]
COc1ccc(N2c3cccc(-c4nc5ccc(OC(F)(F)F)cc5[nH]4)c3OC[C@@H]2CO)nc1 [Example 4, (S)-(4-(5-methoxypyridin-2-yl)-8-(6-(trifluoromethoxy)-1H-benzo[d]imidazol-2-yl)-3,4-dihydro-2H-benzo[b][1,4]oxazin-3-yl)methanol] | +/− (±<0.5° C.) | 0.02 to 0.1 | – | ++ (20˜50%) | –
COc1ccc(N2c3cccc(-c4nc5c(Br)cc(Br)cc5[nH]4)c3OC[C@@H]2CO)nc1 [Example 9, (S)-(8-(4,6-dibromo-1H-benzo[d]imidazol-2-yl)-4-(5-methoxypyridin-2-yl)-3,4-dihydro-2H-benzo[b][1,4]oxazin-3-yl)methanol] | + (0.5^~1.0° C.) | 0.101 to 0.5 | – | ++ (20˜50%) | –
COc1ccc(N2CCOc3c(-c4nc5ccc(C(C)(C)C)cc5[nH]4)cccc32)nc1 [Example 1, 8-(6-tert-Butyl-1H-benzo[d]imidazol-2-yl)-4-(5-methoxypyridin-2-yl)-3,4-dihydro-2H-benzo[b][1,4]oxazine] | +/− (±<0.5° C.) | 0.101 to 0.5 | – | ++ (20˜50%) | –
COc1ccc(N2c3cccc(-c4nc5cc(F)c(Cl)cc5[nH]4)c3OC[C@@H]2CO)nc1 [Example 6, (S)-(8-(6-chloro-5-fluoro-1H-benzo[d]imidazol-2-yl)-4-(5-methoxypyridin-2-yl)-3,4-dihydro-2H-benzo[b][1,4]oxazin-3-yl)methanol] | +/− (±<0.5° C.) | 0.02 to 0.1 | – | +++ (51-80%) | –
COc1ccc(N2c3cccc(-c4nc5cc(Cl)c(Cl)cc5[nH]4)c3OC[C@@H]2CO)nc1 [Example 3, (S)-(8-(5,6-dichloro-1H-benzo[d]imidazol-2-yl)-4-(5-methoxypyridin-2-yl)-3,4-dihydro-2H-benzo[B][1,4]oxazin-3-yl)methanol] | +/− (±<0.5° C.) | 0.02 to 0.1 | – | ++ (20˜50%) | –

Second part, led by results:

Change in Body Temp. [2] | IC50 [3, 4] [µM] | IC50 ([3]; read-out: IC50 on calcium influx) [µM] | Compound | I.A. (inhibitory activity), % inhibition rate class [1] | % inhibition rate of writhing [1] [%]
– | – | 0.1 to 0.15 | O=C(Nc1ccccc1Br)N[C@@H]1CCN(c2ccc(C(F)(F)F)cn2)C1 [SB-705498, (R)-1-(2-bromophenyl)-3-(1-(5-(trifluoromethyl)pyridin-2-yl)pyrrolidin-3-yl)urea, reference compound] | – | < 20
+ (0.5^~1.0° C.) | 0.02 to 0.1 | – | COc1ccc(N2c3cccc(-c4nc5ccc(C(F)(F)F)cc5[nH]4)c3OC[C@@H]2CO)nc1 [Example 2, (S)-(4-(5-methoxypyridin-2-yl)-8-(6-(trifluoromethyl)-1H-benzo[d]imidazol-2-yl)-3,4-dihydro-2H-benzo[b][1,4]oxazin-3-yl)methanol] | ++ (20˜50%) | –
+ (0.5^~1.0° C.) | < 0.02 | – | COc1ccc(N2c3cccc(-c4nc5c(Br)cc(OC(F)(F)F)cc5[nH]4)c3OC[C@@H]2CO)nc1 [Example 5, (S)-(8-(4-bromo-6-(trifluoromethoxy)-1H-benzo[d]imidazol-2-yl)-4-(5-methoxypyridin-2-yl)-3,4-dihydro-2H-benzo[B][1,4]oxazin-3-yl)methanol] | +++ (51-80%) | –
+ (0.5^~1.0° C.) | 0.101 to 0.5 | – | COc1ccc(N2c3cccc(-c4nc5c(Br)cc(C(F)(F)F)cc5[nH]4)c3OC[C@@H]2CO)nc1 [Example 7, (S)-(8-(4-bromo-6-(trifluoromethyl)-1H-benzo[d]imidazol-2-yl)-4-(5-methoxypyridin-2-yl)-3,4-dihydro-2H-benzo[b][1,4]oxazin-3-yl)methanol] | ++ (20˜50%) | –
+/− (±<0.5° C.) | 0.02 to 0.1 | – | COc1ccc(N2c3cccc(-c4nc5c(Cl)cc(C(F)(F)F)cc5[nH]4)c3OC[C@@H]2CO)nc1 [Example 8, (S)-(8-(4-chloro-6-(trifluoromethyl)-1H-benzo[d]imidazol-2-yl)-4-(5-methoxypyridin-2-yl)-3,4-dihydro-2H-benzo[b][1,4]oxazin-3-yl)methanol] | +++ (51-80%) | –
